Laboratory results published in PubChem BioAssay (NCI).
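These data come from cells grown in 96-well plates and exposed to compound for 48 hours at five concentrations. At the TGI there is no net growth.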

Key:
Assay in all cases: growth of human tumour cells (NCI), 48 h
[1] = system: 786-0 renal
[2] = system: A498 renal
[3] = system: A549 NSCLC
[4] = system: ACHN renal
[5] = system: CAKI-1 renal
[6] = system: COLO 205 colon
[7] = system: DLD-1 colon
[8] = system: DMS 114 small cell lung
[9] = system: DMS 273 small cell lung
[10] = system: EKVX NSCLC
[11] = system: HCC-2998 colon
[12] = system: HCT-116 colon
[13] = system: HCT-15 colon
[14] = system: HL-60(TB) leukemia
[15] = system: HOP-18 NSCLC
[16] = system: HOP-62 NSCLC
[17] = system: HOP-92 NSCLC
[18] = system: HT29 colon
[19] = system: IGROV1 ovarian
[20] = system: KM12 colon
[21] = system: KM20L2 colon
[22] = system: LXFL 529 NSCLC
[23] = system: M14 melanoma
[24] = system: M19-MEL melanoma
[25] = system: MALME-3M melanoma
[26] = system: MOLT-4 leukemia
[27] = system: NCI-H226 lung
[28] = system: NCI-H23 lung
[29] = system: NCI-H460 lung
[30] = system: NCI-H522 lung
[31] = system: OVCAR-4 ovarian
[32] = system: OVCAR-5 ovarian
[33] = system: OVCAR-8 ovarian
[34] = system: RPMI-8226 leukemia
[35] = system: RXF 393 renal
[36] = system: SF-268 CNS
[37] = system: SF-295 CNS
[38] = system: SF-539 CNS
[39] = system: SK-MEL-2 melanoma
[40] = system: SK-MEL-28 melanoma
[41] = system: SK-MEL-5 melanoma
[42] = system: SK-OV-3 ovarian
[43] = system: SN12C renal
[44] = system: SNB-19 CNS
[45] = system: SNB-75 CNS
[46] = system: SNB-78 CNS
[47] = system: SR leukemia
[48] = system: SW-620 colon
[49] = system: TK-10 renal
[50] = system: U251 CNS
[51] = system: UACC-257 melanoma
[52] = system: UACC-62 melanoma
[53] = system: UO-31 renal
[54] = system: XF 498 CNS
[55] = system: OVCAR-3 ovarian
[56] = system: CCRF-CEM leukemia
[57] = system: K-562 leukemia
[58] = system: LOX IMVI melanoma
[59] = system: RXF-631 renal

COC(=O)[C@@]12OC[C@]34C([C@@H](O)C1O)[C@@]1(C)CC(=O)C(O)=C(C)C1C[C@H]3OC(=O)[C@H](OC(=O)CC(C)C(F)(F)F)[C@H]42 (some centres undefined)
TGI [1]: 0.708 µM
TGI [2]: 0.121 µM
TGI [3]: 0.492 µM
TGI [4]: 0.301 µM
TGI [5]: 1.07 µM
TGI [6]: 0.415 µM
TGI [7]: 0.509 µM
TGI [8]: 0.128 µM
TGI [9]: 0.0426 µM
TGI [10]: 0.999 µM
TGI [11]: 0.0599 µM
TGI [12]: 0.18 µM
TGI [13]: 1.77 µM
TGI [14]: 0.0175 µM
TGI [15]: 2.79 µM
TGI [16]: 0.594 µM
TGI [17]: 0.131 µM
TGI [18]: 0.146 µM
TGI [19]: 1.05 µM
TGI [20]: 0.563 µM
TGI [21]: 0.172 µM
TGI [22]: 0.195 µM
TGI [23]: 0.124 µM
TGI [24]: 0.205 µM
TGI [25]: 0.0438 µM
TGI [26]: 0.312 µM
TGI [27]: 0.0338 µM
TGI [28]: 0.0717 µM
TGI [29]: 0.0554 µM
TGI [30]: 0.088 µM
TGI [31]: 0.561 µM
TGI [32]: 1.18 µM
TGI [33]: 0.491 µM
TGI [34]: 0.0512 µM
TGI [35]: 0.471 µM
TGI [36]: 0.644 µM
TGI [37]: 0.191 µM
TGI [38]: 0.067 µM
TGI [39]: 0.362 µM
TGI [40]: 0.111 µM
TGI [41]: 0.0731 µM
TGI [42]: 0.531 µM
TGI [43]: 0.911 µM
TGI [44]: 0.108 µM
TGI [45]: 0.187 µM
TGI [46]: 37.5 µM
TGI [47]: 0.0215 µM
TGI [48]: 1.37 µM
TGI [49]: 1.29 µM
TGI [50]: 0.214 µM
TGI [51]: 0.547 µM
TGI [52]: 0.0629 µM
TGI [53]: 1.06 µM
TGI [54]: 0.188 µM

Cc1cccc(C)c1NC(=O)CCCC(=O)C1CC(=O)CCC1=O (centres undefined)
TGI [1]: > 100 µM
TGI [2]: > 100 µM
TGI [4]: > 100 µM
TGI [7]: > 100 µM
TGI [8]: > 100 µM
TGI [10]: > 100 µM
TGI [11]: > 100 µM
TGI [12]: > 100 µM
TGI [13]: > 100 µM
TGI [16]: > 100 µM
TGI [18]: > 100 µM
TGI [21]: > 100 µM
TGI [24]: > 100 µM
TGI [25]: > 100 µM
TGI [26]: > 100 µM
TGI [27]: > 100 µM
TGI [28]: > 100 µM
TGI [30]: > 100 µM
TGI [55]: > 100 µM
TGI [31]: > 100 µM
TGI [33]: > 100 µM
TGI [34]: > 100 µM
TGI [35]: > 100 µM
TGI [36]: > 100 µM
TGI [38]: > 100 µM
TGI [40]: > 100 µM
TGI [42]: > 100 µM
TGI [43]: > 100 µM
TGI [44]: > 100 µM
TGI [45]: > 100 µM
TGI [46]: > 100 µM
TGI [47]: > 100 µM
TGI [50]: > 100 µM
TGI [51]: > 100 µM
TGI [52]: > 100 µM
TGI [53]: > 100 µM
TGI [54]: > 100 µM

CC1=NN(C(=O)c2ccc(Cl)cc2)C(=O)/C1=C/c1cccc([N+](=O)[O-])c1
TGI [1]: > 100 µM
TGI [2]: > 100 µM
TGI [3]: > 100 µM
TGI [4]: > 100 µM
TGI [5]: > 100 µM
TGI [56]: > 100 µM
TGI [6]: > 100 µM
TGI [7]: > 100 µM
TGI [8]: > 100 µM
TGI [10]: > 100 µM
TGI [11]: > 100 µM
TGI [12]: > 100 µM
TGI [13]: > 100 µM
TGI [14]: > 100 µM
TGI [16]: > 100 µM
TGI [17]: > 100 µM
TGI [18]: > 100 µM
TGI [19]: > 100 µM
TGI [57]: > 100 µM
TGI [20]: > 100 µM
TGI [21]: > 100 µM
TGI [58]: > 100 µM
TGI [22]: > 100 µM
TGI [23]: > 100 µM
TGI [24]: > 100 µM
TGI [25]: > 100 µM
TGI [28]: > 100 µM
TGI [29]: > 100 µM
TGI [30]: > 100 µM
TGI [55]: > 100 µM
TGI [31]: > 100 µM
TGI [32]: > 100 µM
TGI [33]: > 100 µM
TGI [34]: > 100 µM
TGI [35]: > 100 µM
TGI [36]: > 100 µM
TGI [37]: > 100 µM
TGI [38]: > 100 µM
TGI [39]: > 100 µM
TGI [40]: > 100 µM
TGI [41]: > 100 µM
TGI [42]: > 100 µM
TGI [43]: > 100 µM
TGI [44]: > 100 µM
TGI [46]: > 100 µM
TGI [48]: > 100 µM
TGI [49]: > 100 µM
TGI [50]: > 100 µM
TGI [51]: > 100 µM
TGI [52]: > 100 µM
TGI [53]: > 100 µM
TGI [54]: > 100 µM

CCC1=CC2CC(C(=O)OC)C1(N(C)C)C2=O (centres undefined)
TGI [2]: > 100 µM
TGI [3]: > 100 µM
TGI [4]: > 100 µM
TGI [56]: > 100 µM
TGI [8]: > 100 µM
TGI [9]: > 100 µM
TGI [10]: > 100 µM
TGI [12]: > 100 µM
TGI [14]: > 100 µM
TGI [16]: > 100 µM
TGI [17]: > 100 µM
TGI [18]: > 100 µM
TGI [19]: > 100 µM
TGI [20]: > 100 µM
TGI [23]: > 100 µM
TGI [24]: > 100 µM
TGI [26]: > 100 µM
TGI [28]: > 100 µM
TGI [29]: > 100 µM
TGI [30]: > 100 µM
TGI [32]: > 100 µM
TGI [33]: > 100 µM
TGI [35]: > 100 µM
TGI [59]: > 100 µM
TGI [36]: > 100 µM
TGI [37]: > 100 µM
TGI [40]: > 100 µM
TGI [42]: > 100 µM
TGI [44]: > 100 µM
TGI [46]: > 100 µM
TGI [47]: > 100 µM
TGI [49]: > 100 µM
TGI [50]: > 100 µM
TGI [51]: > 100 µM
TGI [52]: > 100 µM
TGI [53]: > 100 µM
